Assay results from BindingDB's records for doi:10.1021/jm00070a001 (Warner-Lambert, 1993).
Where a SMILES comes first, the peptide text is derived from it. [ ]: non-standard residue; d: D form.

What follows are compounds tested against Endothelin-1 receptor (Oryctolagus cuniculus) (assay: Effective concentration against ET A receptor from rabbit renal artery vascular smooth muscle cells).
`CC[C@H](C)[C@H](NC(=O)[C@H](CC(=O)O)NC(=O)[C@H](CC(C)C)NC(=O)[C@@H](Cc1ccc(O)cc1)NC(C)=O)C(=O)N[C@H](C(=O)N[C@@H](Cc1c[nH]c2ccccc12)C(=O)O)[C@@H](C)CC` (Ac-[dY]LDIIW-OH) gave an IC50 of 0.4 µM. Work on `CC[C@H](C)[C@H](NC(=O)[C@H](CC(=O)O)NC(=O)[C@H](CC(C)C)NC(=O)[C@@H](Cc1ccccc1)NC(C)=O)C(=O)N[C@H](C(=O)NC(Cc1cnc[nH]1)C(=O)O)[C@@H](C)CC` (mixture of isomers) [Ac-D-Phe-Leu-Asp-Ile-Ile-DL-His] yielded an IC50 of over 10 µM. `CC[C@H](C)[C@H](NC(=O)[C@H](CC(=O)O)NC(=O)[C@H](CC(C)C)NC(=O)[C@@H](Cc1ccccc1)NC(C)=O)C(=O)N[C@@H](Cc1c[nH]c2ccccc12)C(=O)O` [(S)-3-[(R)-2-((1S,5S)-2-Acetylamino-3-phenyl-propionylamino)-4-methyl-pentanoylamino]-N-{(S)-1-[(S)-1-carboxy-2-(1H-indol-3-yl)-ethylcarbamoyl]-2-methyl-butyl}-succinamic acid] (Ac-[dF]LDIW-OH) gave an IC50 of over 10 µM. `CC[C@H](C)[C@H](NC(=O)[C@@H](NC(=O)[C@@H](Cc1ccccc1)NC(C)=O)[C@@H](C)CC)C(=O)N[C@@H](Cc1c[nH]c2ccccc12)C(=O)O` [Ac-D-Phe-Ile-Ile-Trp] (Ac-[dF]IIW-OH) gave an IC50 of over 10 µM. Compound `CC[C@H](C)[C@H](NC(=O)[C@H](C)NC(=O)[C@H](CC(=O)O)NC(=O)[C@H](CC(C)C)NC(=O)[C@@H](Cc1ccccc1)NC(C)=O)C(=O)N[C@@H](Cc1c[nH]c2ccccc12)C(=O)O` [Ac-D-Phe-Leu-Asp-Ala-Ile-Trp] (Ac-[dF]LDAIW-OH) has an IC50 of 3.6 µM. In the case of `CC[C@H](C)[C@H](NC(=O)[C@H](CC(=O)O)NC(=O)[C@H](CC(C)C)NC(=O)[C@@H](Cc1ccccc1)NC(C)=O)C(=O)N[C@@H](C)C(=O)N[C@@H](Cc1c[nH]c2ccccc12)C(=O)O` [Ac-D-Phe-Leu-Asp-Ile-Ala-Trp] (Ac-[dF]LDIAW-OH), the IC50 is reported as 8 µM. `CC[C@H](C)[C@H](NC(=O)[C@H](CC(=O)O)NC(=O)[C@H](CC(C)C)NC(=O)[C@@H](Cc1ccccc1)NC(C)=O)C(=O)N[C@H](C(=O)N[C@@H](Cc1csc2ccccc12)C(=O)O)[C@@H](C)CC` [Ac-D-Phe-Leu-Asp-Ile-Ile-Bta] was tested, and the IC50 was 14 µM. In the case of `CC[C@H](C)[C@H](NC(=O)[C@H](CC(=O)O)NC(=O)[C@H](CC(C)C)NC(=O)[C@@H](Cc1ccccc1)NC(C)=O)C(=O)N[C@H](C(=O)N[C@@H](Cc1ccc(O)cc1)C(=O)O)[C@@H](C)CC` [Ac-D-Phe-Leu-Asp-Ile-Ile-Tyr] (Ac-[dF]LDIIY-OH), the IC50 is reported as over 10 µM. `CC[C@H](C)[C@H](NC(=O)[C@H](CC(=O)O)NC(=O)[C@H](CC(C)C)NC(=O)[C@H](N)Cc1ccccc1)C(=O)N[C@H](C(=O)N[C@@H](Cc1c[nH]c2ccccc12)C(=O)O)[C@@H](C)CC` [D-Phe-Leu-Asp-Ile-Ile-Trp] gave an IC50 of over 10 µM.
